Data on one molecule can be found in PMC12702354, “Engineered an ultrasmall curcumin oral nanoformulation restores intestinal integrity and gut microbiota dysbiosis” (Materials Today Bio, 2025).

The subject of data set [1] is gut microbiota. Put plainly: 16S rRNA gene sequencing of gut microbiota in VAN-induced mice. It counts as in vivo, C57BL/6 mice. The conditions noted are these: heat map-cluster and qPCR analysis. An excerpt:
Faecal microbial genomic DNA was isolated and quantified as described elsewhere. Universal primers were employed to facilitate the amplification of the V3 and V4 domains of the 16S rRNA gene. The obtained amplicons were normalized, aligned to create the sequencing library, and sequenced on an Illumina MiSeq (San Diego, USA). The raw data of 16S rRNA gene sequences were filtered based on high error probability (>0.01) and analyzed by QIIME version (1.9.1). We generated OTUs at an identity threshold of 97 % using UPARSE (version 7.0.1001). NMDS plots were developed using PAST version 2.17 [44]. Heatmap profiles were constructed using R Studio software version 3.6.1. To examine the differentially abundant biomarkers between the different groups, LEfSe analysis was performed. Spearman correlational studies were performed to assess the correlations between VAN-induced inflammation-related parameters and gut bacteria and metabolites.

The nature of data set [2]: Storage stability of UsNFs in MQW over 180 days at 37 °C. It counts as physicochemical. The conditions noted are these: 37 ± 1 °C. The method, then:
The release kinetics of CUR from the UsNFs was also measured for 24 h in simulated gastric fluid (SGF; pH 2.5) and simulated intestinal fluid (SIF; pH 7.0) at 37 ± 1 °C (Fig. 2F). […] Additionally, the stability of UsNFs, which were dissolved at a concentration of 2 mg/mL in MQW, was also tested over 180 days at a temperature of 37 ± 1 °C (Fig. 2G and H). […] The autoxidation, hydrolysis, and degradation-induced content loss of CUR is a significant issue.

For data set [3], the system named is Caco-2 cell monolayer. Put plainly: TEER of Caco-2 cell monolayer. The conditions noted are these: applied apically 120 min, then removed. It counts as cell-based, human. The method, then:
First, 5 × 10^4 Caco-2 cells/well, as a gastrointestinal epithelium model were cultured in transwell plates (Thermo Fisher, India) with a pore size of 0.4 μm. Once the TEER values attained 500 Ω cm^2, the cell monolayers were utilized for the subsequent experiments. Initially, mucin (10 mg/mL PBS) was introduced into the apical medium to mimic the occurrence of mucus, whereas PBS without mucin was utilized to represent the condition lacking mucus. Subsequently, IF (20 μL, 100 IU/mL) and 200 μL of CUR formulations (1 mg/mL) were introduced into the upper chambers. While incubating in a water bath at 37 °C, samples were taken from the lower chambers for analysis at various time intervals. A portion of the basolateral medium was taken out and examined using RP-HPLC to quantify the CUR content. The Papp of CUR was determined using the method outlined in a previous study. To analyze intracellular uptake, cells were gathered and underwent multiple freeze-thaw cycles prior to being lysed for 60 min. The concentration of CUR taken up by the cells was assessed using HPLC. Additionally, TEER measurements were recorded to evaluate the effect of CUR formulations on the monolayer's integrity. The baseline TEER readings for the Caco-2 cell layer were recorded. The apical media were then substituted with CUR formulations (200 μL). […] The Papp values for CUR were calculated.

Data set [4] can be described thus: Stability in SIF (pancreatin + bile salts). In kind it is physicochemical. The conditions noted are these: 24 h. On the procedure:
To examine the breakdown of nGM@CUR-UsNF and cGM@CUR-UsNF in SGF and SIF, Fӧrster resonance energy transfer (FRET) analysis was conducted. Formulations co-loaded with HIQ and NR (FRET pairs) were prepared by mixing galactomannan or cGM with HIQ (1 mg/mL) and NR (0.4 mg/mL), followed by sonication 150 W and 25 kHz in an ice-water bath and then filtered using a 0.1 μm membrane. Ultimately, the HIQ/NR@cGM was produced by exposing it to a 253.7 nm UV light at 36 W for 90 min. The control sample of HIQ/NR@GM was also prepared. The PS, PDI, and ZP of the prepared formulations were assessed through dynamic laser scattering. The LE was also determined. The prepared formulations were mixed with SGF or SIF in tubes. […] Fluorescence intensities were captured using a SYNERGY/HTX (BioTek, Germany) with the excitation at 510 nm and emission at 635 nm. The FRET ratio was determined using the formula FRET ratio = INR/(INR + IHIQ), where IHIQ and INR represented the fluorescence intensities of HIQ and NR at 510 nm and 635 nm, respectively, with an excitation wavelength of 450 nm. […] CUR retention was measured using HPLC following the separation of the released drug, while particle size was assessed through DLS analysis. The stability of the polymer was evaluated using gel permeation chromatography and a reducing sugar assay. […]

Each structure is given as a SMILES string.

As for `COc1cc(/C=C/C(=O)CC(=O)/C=C/c2ccc(O)c(OC)c2)ccc1O` [free-CUR, curcumin], the “Restoring effect on VAN-altered GM” value in data set [1] was “did not show any significant restoring effects”. In addition, in data set [2], the “CUR content remaining after storage” value is listed as 27% and the “CUR degradation during storage” value is reported as “over 73%”. Also, in data set [3], the “TEER change of cell monolayer” value is reported as “kept the TEER steady”. Also, the CUR retained entry in data set [4] is listed as “less than 10%”.
